Patent US20050019314A1, “Method and compositions for treating respiratory pathologies” (priority 2001, published 2005)
Marks after values point to notes of the source that are not given here.

Assays:
Assay type in all cases: in vivo, rat
[1] = system: male Wistar rats; assay: Immune cell accumulation in bronchoalveolar lavage fluid induced by intratracheal instillation of taurocholate (ML-7)
Method: For this experiment, three groups of 8 male Wistar rats (250-300 g) were given either ML-7 by the IP route at a dose of 1 mg/kg/12 h for 36 hours, or the vehicle alone. […] At time t=2 h after the intratracheal instillation, animals were anesthetized for bronchoalveolar lavage, then sacrificed.

[2] = system: male Wistar rats; assay: Immune cell accumulation in bronchoalveolar lavage fluid induced by intratracheal infusion of Pseudomonas aeruginosa LPS
Method: For this experiment, three groups of 7 male Wistar rats (200-225 g) were used. Animals were pretreated with either ML-7 by the IP route (3 mg/kg then 1 mg/kg, 3 times a day for 48 h) or with the vehicle (ethanol 10%). One hour after the next-to-last ML-7 administration, under urethane anesthesia ([…]), a slow intratracheal infusion of 150 μl of an iso-osmolar solution (5% bovine albumin+PBS) containing (2 groups) or not containing (control group) LPS (1 μg/rat) was given. Four hours after the intratracheal infusion, bronchoalveolar lavage was performed.

[3] = system: male Wistar rats; assay: Pulmonary paracellular permeability to 125I-labelled human serum albumin after intratracheal Pseudomonas aeruginosa LPS
Method: For this experiment, three groups of 6 male Wistar rats (200-225 g) were pretreated either with ML-7 by the IP route (3 mg/kg then 1 mg/kg 3 times a day for 48 h) or the vehicle (ethanol 10%). One hour after the next-to-last administration of ML-7, under urethane anesthesia ([…] IP), a slow intratracheal infusion of 150 μl of an iso-osmolar solution (5% bovine albumin+PBS) containing the tracer and containing (2 groups) or not containing (control group) LPS (1 μg/rat) was given.

[4] = system: male Wistar rats; assay: Immune cell accumulation in bronchoalveolar lavage fluid induced by intratracheal infusion of taurocholate (PD-98059)
Method: For this experiment, three groups of 8 male Wistar rats (250-300 g) were given either PD-98059 by the IP route (1 mg/kg/12 h, 36 h) or the vehicle alone (DMSO).

[5] = system: male Wistar rats; assay: Immune cell accumulation in bronchoalveolar lavage fluid induced by intranasal instillation of SLIGRL in rats
Method: At time t=10 days, the four groups of animals were given a slow intranasal instillation of 200 μl of physiologic serum containing (groups 2 and 4) or not containing (groups 1 and 3) 0.2 mg of SLIGRL.
At time t=3 h after intranasal instillation, animals were anesthetized for bronchoalveolar lavage, then sacrificed.

[6] = ML-7 1 mg/kg/12 h, 36 h IP + taurocholate intratracheal, BAL 2 h, mean ± SD
[7] = ML-7 (3 mg/kg then 1 mg/kg 3 times a day for 48 h IP) + LPS, BAL 4 h, mean ± SEM
[8] = PD-98059 1 mg/kg/12 h, 36 h IP + taurocholate, BAL 2 h, mean ± SEM
[9] = Taurine 10% in drinking water 10 days + 0.9% NaCl IN, BAL 3 h
[10] = Taurine 10% in drinking water 10 days + PAR 2 (SLIGRL) IN, BAL 3 h
[11] = PAR 2 (SLIGRL) 0.2 mg/kg IN alone, no taurine, BAL 3 h after instillation

In the case of O=S(=O)(c1cccc2c(I)cccc12)N1CCCNCC1 [ML-7, 1-(5-iodonaphtalène-1-sulfonyl)-1H-hexahydro-1,4-diazepine], the “Leucocytes in BAL” value [1, 6] is reported as 4160 ± 573, the “Lymphocytes in BAL” value [1, 6] is reported as 101 ± 44 and the “Macrophages in BAL” value [1, 6] is reported as 3585 ± 398. The “Neutrophils in BAL” value [1, 6] was 473 ± 216, the “intra-alveolar accumulation of immune cells (in words)” value ([1]; ML-7 IP + intratracheal taurocholate) was “significantly reduces” and the “Leucocytes in BAL” value [2, 7] was 17243 ± 2956 cells/mm^3 BAL. The “Lymphocytes in BAL” value [2, 7] was 902 ± 375 cells/mm^3 BAL, the “Macrophages in BAL” value [2, 7] was 10708 ± 1713 cells/mm^3 BAL and the “Neutrophils in BAL” value [2, 7] was 6587 ± 1749 cells/mm^3 BAL. The “LPS-induced increase in the number of neutrophils in BAL (in words)” value ([2]; ML-7 pretreatment IP + LPS) was “reduced”, the “effect on vascular endothelial cells (endothelium permeability, tone, pulmonary circulating hemodynamics)” value ([3]; ML-7 IP + LPS, concluded from unchanged plasma radioactivity) was “does not present effect” and the “LPS-induced increase in pulmonary permeability” value ([3]; ML-7 pretreatment IP (3 mg/kg then 1 mg/kg 3 times a day for 48 h) + LPS) was “inhibited”.

With COc1cccc(-c2cc(=O)c3ccccc3o2)c1N [PD-98059, 2-(amino-3-methoxyphenyl)-4H-1-benzopyran-4-one] the “Eosinophils in BAL” value [4, 8] was 27 ± 27 cells/mm^3 BAL, the “Leucocytes in BAL” value [4, 8] was 21424 ± 3164 cells/mm^3 BAL and the “Lymphocytes in BAL” value [4, 8] was 774 ± 183 cells/mm^3 BAL. For the same compound, the “Macrophages in BAL” value [4, 8] was 17956 ± 2465 cells/mm^3 BAL, the “Neutrophils in BAL” value [4, 8] was 2652 ± 600 cells/mm^3 BAL and the “intra-alveolar accumulation of immune cells (in words)” value ([4]; PD-98059 IP + intratracheal taurocholate) was “reduces”.

For NCCS(=O)(=O)O [Taurine, taurine], the “Eosinophils in BAL” value [5, 9] was 17 ± 1 mm^3, the “Lymphocytes in BAL” value [5, 9] was 22 ± 8 mm^3 and the “Macrophages in BAL” value [5, 9] was 1651 ± 72 mm^3. For the same compound, the “Neutrophils in BAL” value [5, 9] was 34 ± 3 mm^3, the “Tot. Leucocytes in BAL” value [5, 9] was 1728 ± 111 mm^3 and the “Eosinophils in BAL” value [5, 10] was 17 ± 1* mm^3. For the same compound, the “Lymphocytes in BAL” value [5, 10] was 22 ± 8* mm^3, the “Macrophages in BAL” value [5, 10] was 1967 ± 103* mm^3 and the “Neutrophils in BAL” value [5, 10] was 34 ± 3* mm^3. The “Tot. Leucocytes in BAL” value [5, 10] was 2086 ± 134* mm^3 and the “SLIGRL-induced accumulation of eosinophils and neutrophils in BAL (in words)” value ([5]; animals treated with taurine, t = 3 h) was “not in animals treated with taurine”.

In the case of SLIGRL [PAR 2], the “Eosinophils in BAL” value [5, 11] is reported as 32 ± 2^+ mm^3, the “Lymphocytes in BAL” value [5, 11] is reported as 297 ± 28 mm^3 and the “Macrophages in BAL” value [5, 11] is reported as 5559 ± 63^+ mm^3. The “Neutrophils in BAL” value [5, 11] was 656 ± 41^+ mm^3, the “Tot. Leucocytes in BAL” value [5, 11] was 6464 ± 99^+ mm^3 and the “eosinophils and neutrophils in bronchoalveolar lavage fluid (in words)” value ([5]; intranasal SLIGRL, control animals (no taurine), t = 3 h) was “results in accumulation”.
